Data set [1] concerns SK-MEL-2 melanoma. The note with it: SK-MEL-2 CAM model; Caunii et al., 2017; cited from earlier work.
The nature of data set [2]: Nitric oxide scavenging activity (Griess reaction). For orientation: Nitrite, measured by Griess reagent, commonly stands in for NO production.
Method: Briefly, 90 μl of distilled water was added to the top row of a 96-well microtitre plate and 50 μl to the rest of the wells in the plate. […] Ethanol was used as the negative control. To each well 50 μl sodium nitroprusside (10 mM) was added and the plates were incubated at room temperature for 90 min. Thereafter, 100 μl Griess reagent was added to all the wells, except for the blank plates where distilled water was added. […] All samples were tested in triplicate. The percentage inhibition of the samples was calculated using the below equation.
Where Abscontrol is the absorbance of NO radical+ethanol control; Absample is the absorbance of (NO radical+sample OR positive control)−(blank values of corresponding sample). The IC50 values for each sample were calculated using GraphPad Prism 4 software.
Data set [3] in a line: in vitro. Particulars: human. The format is cell-based. How it is done:
(§1) Exponentially growing UCT-MEL-1 and HaCat cells were seeded at a concentration of 1.0×10^5 cells/well in a 24-well plate with complete medium to allow for cell adherence. After 24 h, the medium was removed and replaced with fresh complete medium. Stock concentrations of the B. saligna extract and DT-BS-01 were prepared at 1 mg/ml. The cells were treated with final concentrations of the B. saligna at 30 and 60 μg/ml; and DT-BS-01 at 5 and 20 μg/ml. Controls included a 0.15% DMSO vehicle control, cells grown in medium only and cells exposed to the positive control, ursolic acid at final concentrations of 6 μg/ml. After 6 h of treatment, the plates were centrifuged at 980 rpm for 10 min and the supernatant collected for quantification of VEGF using an ELISA kit (ThermoFisher Scientific, Johannesburg, South Africa) (Thermo Fisher, 2017). The cells viability was further determined using XTT at a final concentration of 0.3 mg/ml. The quantification of VEGF was performed according to the manufacturer's protocol (Novex® Cat #KHG0111) using a VEGF standard curve.
The levels of VEGF secreted by UCT-MEL-1 and HaCat cells were determined after 6 h incubation with B. saligna and DT-BS-01. […] The HaCat cell viability was determined after treatment with the various samples and controls in order to determine whether inhibition of VEGF could have been due to a decrease in cell viability. […]

Data set [4] deals with vascular endothelial growth factor (VEGF). The experiment in a line: Quantification of in vitro VEGF in HaCat cells (ELISA). The format is cell-based. The note with it: Homo sapiens, 6 μg/ml, 6 h, read-out: inhibition of VEGF production. How it is done: as §1
(In general: In an ELISA, binding on a coated surface is turned into a signal by an enzyme label.)

Data set [5] concerns UCT-MEL-1 cells. Nature of the data set: Flow cytometry apoptosis detection (Annexin V / 7-AAD). It counts as cell-based, human. Particulars: 0.025 μg/ml, 48 h. From the text: (§2) Phosphatidylserine (PS) is a lipid, which is present in the inner leaflet of the plasma membrane. The early stages of apoptosis are characterized by an asymmetric membrane due to the translocation of the PS lipid from the inner membrane leaflet to the outer leaflet. Once exposed to the outer cellular environment, Annexin V, which has a high affinity for PS, is able to bind to it. After the early stages of apoptosis have taken place, the plasma membrane integrity starts to disintegrate thereby allowing the uptake of 7-AAD into the cell, which is associated with late apoptosis or necrosis. […] Using Annexin V and 7-AAD staining can therefore, not distinguish between late apoptosis or necrosis, however can characterize early apoptosis. The degree of apoptosis was thus measured using the Annexin V-FITC apoptosis detection kit. […] Actinomycin D (0.025 μg/ml) was used as a positive control for apoptosis to occur. Other controls included a medium (untreated) and 0.25% DMSO vehicle control. […] An additional 400 μl binding buffer was added to each culture tube and the fluorescence was measured using an Accuri C6 flow cytometer (BD Biosciences, San Jose, CA, USA). Data from at least 10,000 cells were analyzed using the BD Accuri C6 software.

The subject of data set [6] is HaCat cells. Described as above. It counts as cell-based, human. Particulars: 0.025 μg/ml, 48 h.
Source text: as §2

Data set [7] deals with UCT-MEL-1 (human pigmented melanoma) cells. The experiment in a line: XTT antiproliferative assay, human melanoma cells. The format is cell-based. Particulars: HaCat versus UCT-MEL-1 IC50. The method, then: To investigate the antiproliferative potential of B. saligna and DT-BS-01, the XTT assay was performed. Antiproliferative activity was measured using the method as described by Berrington and Lall (2012) using the XTT Cell Proliferation Kit II. Cells were seeded at a concentration of 1.0×10^6 cells/ml in 96-well plates (100 μl) and allowed to adhere for 24 h. The B. saligna extract and DT-BS-01 were prepared at stock concentrations of 20 mg/ml, serially diluted and added to the 96-well plates at final concentrations ranging from 1.56-200 μg/ml. […] Cells were incubated for a further 72 h with the respective samples and controls. […] Blank plates were included which were prepared in the same manner as mentioned above, without the additional of cell, to allow for colour compensation of the samples. The samples were tested in triplicate and the percentage cell viability was calculated using the following equation. […] Where Abscontrol is the absorbance of XTT+vehicle control and Absample is the absorbance of (XTT+sample OR positive control)-(blank values of corresponding sample). […] The XTT colorimetric assay is based on the ability of viable metabolically active cells to convert a yellow tetrazolium salt to an orange formazan dye. […]
In general terms: Tetrazolium dyes change colour on reduction, which living cells bring about.

The subject of data set [8] is UCT-MEL-1 cells. Nature of the data set: Light microscopy (haematoxylin and eosin staining), cell morphology. The format is cell-based, human. The note with it: 0.025 μg/ml, 48 h. The method, then: (§3) One of the hallmarks of cancer cells is their ability to evade apoptosis, therefore providing a suitable target for the destruction of cancer cells. The effect of B. saligna and DT-BS-01 on the morphology of UCT-MEL-1 and HaCat cells was determined using light microscopy. Light microscopy (haematoxylin and eosin staining) was used to determine the qualitative effect B. saligna (30 and 60 μg/ml) and DT-BS-01 (5 and 20 μg/ml) on the morphology of UCT-MEL-1 and HaCat cells. […] Exponentially growing UCT-MEL-1 and HaCat cells were seeded at 1.0×10^5 cells per well in a 6-well plate and incubated for 24 h at 37° C. at 5% CO2 to allow for cell adherence. […] Cells were stained (in the 6-well plate) as described by Berrington & Lall (2012). After staining, sterile PBS was added to all the wells and immediately analysed for morphological changes using a light microscope (Zeiss Primovert).
(§4) Light microscopy was performed in order to determine whether cell death, induced by B. saligna and the DT-BS-01 was mediated through apoptosis (FIG. 2 and FIG. 3). Apoptosis is described as a programmed cell death in which biochemical and morphological changes occur within the cells. […]

Data set [9] relates to HaCat cells. The data set is described as above. It counts as cell-based, human. Particulars: 0.025 μg/ml, 48 h. How it is done: as §3, §4
Data set [10] deals with HaCat (human keratinocytes) cells. The experiment in a line: XTT antiproliferative assay, human keratinocytes. It counts as cell-based. Particulars: 72 h exposure. How it is done: The cell lines were maintained in culture flasks containing Dulbecco's modified Eagle's medium (DMEM) supplemented with 10%, heat-inactivated fetal bovine serum (FBS) and 100 U/ml penicillin, 100 μg/ml streptomycin and 250 μg/ml fungizone at 37° C. and 5%, CO2. Cells were sub-cultured once an 80%, confluent monolayer had formed using trypsin-EDTA (0.25%, trypsin containing 0.01%, EDTA).
To investigate the antiproliferative potential of B. saligna and DT-BS-01, the XTT assay was performed. Antiproliferative activity was measured using the method as described by Berrington and Lall (2012) using the XTT Cell Proliferation Kit II. […] Thereafter, 50 μl XTT (0.3 mg/ml) was added to the cells and incubated for 2 h where after the absorbance was measured at 490 nm (reference wavelength of 690 nm) using a BIO-TEK power-wave XS plate reader (A.D.P, Weltevreden Park, South Africa). […] The samples were tested in triplicate and the percentage cell viability was calculated using the following equation.
Where Abscontrol is the absorbance of XTT+vehicle control and Absample is the absorbance of (XTT+sample OR positive control)−(blank values of corresponding sample). The fifty percent inhibitory concentrations (IC50) were calculated from the % cell viability using the GraphPad Prism 4 software. […]

≈ marks a conversion by molar mass, not a printed value. Numbered stars: 1 amine (or outer) side, 2 acyl side, 3 side chain; on linkers, the order of the positions; unused ones are H or OH. Bridge positions count the residues as written; N and C are the ends. Square brackets hold non-standard residues; d marks the D form. Peptide text beside a SMILES is read from it. I, II: the chains in the order shown. Actinocin(9to1) = Cc1c2oc3c(C)ccc(C(=O)[*:1])c3nc-2c(C(=O)[*:2])c(N)c1=O; NMeV = CN[C@H](C(=O)O)C(C)C; Sar = CNCC(=O)O

On to `CC1(C)CC[C@]2(C(=O)O)CC[C@]3(C)C(=CC[C@@H]4[C@@]5(C)CC[C@H](O)C(C)(C)[C@@H]5CC[C@]43C)[C@@H]2C1` [oleanolic acid], for which, in [1], the “angiogenic potential / capillary density in CAM” value is “able to reduce the angiogenic potential”.

`O=C1O[C@H]([C@@H](O)CO)C(O)=C1O` [ascorbic acid]: the “NO radical scavenging activity” value in data set [2] (500 μg/ml) is 75.70±0.15%. For the same compound, the “NO IC50 ± SD” value in data set [2] (NO radical scavenging) stood at 62.46 ± 0.46 µg/mL.

The viability is the share of living cells, or the viability signal relative to a control. In general, inhibition refers to the share of the control response that was lost under treatment. Consider `C[C@H]1[C@H](C)CC[C@]2(C(=O)O)CC[C@]3(C)C(=CC[C@@H]4[C@@]5(C)CC[C@H](O)C(C)(C)[C@@H]5CC[C@]43C)[C@H]12` [ursolic acid], for which the viability at 6 h, 6 μg/ml in data set [3] was 96 ± 3.62%. In addition, the “angiogenic potential / capillary density in CAM” value in [1] was “did not inhibit the density of the capillaries”. Also, in data set [4], the inhibition at 6 µg/mL is 16 ± 0.93%.

For the compound `Cc1c2oc3c(C)ccc(C(=O)N[C@@H]4C(=O)N[C@H](C(C)C)C(=O)N5CCC[C@H]5C(=O)N(C)CC(=O)N(C)[C@@H](C(C)C)C(=O)O[C@@H]4C)c3nc-2c(C(=O)N[C@@H]2C(=O)N[C@H](C(C)C)C(=O)N3CCC[C@H]3C(=O)N(C)CC(=O)N(C)[C@@H](C(C)C)C(=O)O[C@@H]2C)c(N)c1=O` [Actinomycin D] (I: T[dV]P[Sar][NMeV] / II: T[dV]P[Sar][NMeV]; ester I:1-I:C, II:1-II:C; linker I:N-II:N via Actinocin(9to1)), the “cells in late apoptosis, UCT-MEL-1” value in [5] is 99.2%. The “cells in late apoptosis, HaCat” value in [6] was 90.6%. The “selectivity index (SI)” value in data set [7] turned out to be 3.83. The “cell morphology, UCT-MEL-1” value in data set [8] is on record as “displayed characteristic signs of apoptosis”. In addition, the “cell morphology, HaCat” value in data set [9] is on record as “displayed characteristic signs of apoptosis”. The “IC50 on HaCat cells” value in data set [10] is 0.0092 ± 6.88e-05 µg/mL (≈ 7.33 nM).

(Values after patent US12357668B2, “Anticancer activity of Buddleja saligna compositions” (University of Pretoria, priority 2019, dated 2025).)
